# Laboratory results as given in ChEMBL document CHEMBL3286176, “Discovery and structure-activity relationship of novel 2,3-dihydrobenzofuran-7-carboxamide and 2,3-dihydrobenzofuran-3(2H)-one-7-carboxamide derivatives as poly(ADP-ribose)polymerase-1 inhibitors” (J Med Chem, 2014).
# System: not listed separately
# Experiment: Cytotoxicity against chicken BRCA2-deficient DT40 cells assessed as cell viability after 72 hrs by ATPlite assay
# Assay type: cell-based, Gallus gallus
# Details: not given
row,Compound,IC90 at 72 h [µM]
1,CN1CCN(CCOc2ccc(/C=C3\Oc4c(C(N)=O)cccc4C3=O)cc2)CC1,5.2

# Molecular target: Poly [ADP-ribose] polymerase 1 (Homo sapiens, UniProt P09874)
# Sequence (P09874 whole entry): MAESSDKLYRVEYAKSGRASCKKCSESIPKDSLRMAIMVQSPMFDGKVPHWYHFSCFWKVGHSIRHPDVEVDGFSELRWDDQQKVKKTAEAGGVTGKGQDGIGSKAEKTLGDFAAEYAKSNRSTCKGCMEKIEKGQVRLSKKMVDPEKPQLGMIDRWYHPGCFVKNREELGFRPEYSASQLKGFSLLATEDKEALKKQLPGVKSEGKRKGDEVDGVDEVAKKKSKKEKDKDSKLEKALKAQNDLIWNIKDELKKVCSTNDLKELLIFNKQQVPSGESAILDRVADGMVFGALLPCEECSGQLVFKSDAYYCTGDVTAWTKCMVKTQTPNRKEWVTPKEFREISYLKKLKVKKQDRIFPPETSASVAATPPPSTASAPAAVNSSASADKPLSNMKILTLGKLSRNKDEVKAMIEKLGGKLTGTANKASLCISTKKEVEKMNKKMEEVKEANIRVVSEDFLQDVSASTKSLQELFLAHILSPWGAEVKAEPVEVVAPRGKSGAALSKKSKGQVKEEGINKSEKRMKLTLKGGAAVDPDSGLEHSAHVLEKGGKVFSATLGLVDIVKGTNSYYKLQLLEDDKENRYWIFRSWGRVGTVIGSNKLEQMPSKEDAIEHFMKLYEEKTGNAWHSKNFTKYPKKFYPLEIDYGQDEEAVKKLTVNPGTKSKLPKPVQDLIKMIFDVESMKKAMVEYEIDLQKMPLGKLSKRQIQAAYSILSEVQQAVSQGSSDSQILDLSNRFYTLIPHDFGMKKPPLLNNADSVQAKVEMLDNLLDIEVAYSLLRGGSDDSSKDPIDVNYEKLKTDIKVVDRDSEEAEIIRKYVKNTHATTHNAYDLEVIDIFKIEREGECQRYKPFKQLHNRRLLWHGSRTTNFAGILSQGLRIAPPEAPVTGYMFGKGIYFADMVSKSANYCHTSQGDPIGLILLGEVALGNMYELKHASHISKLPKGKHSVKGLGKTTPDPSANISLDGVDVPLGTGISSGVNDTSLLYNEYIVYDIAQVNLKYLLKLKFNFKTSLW
# Experiment: Inhibition of PARP-1 (unknown origin) using biotinylated NAD+ as substrate after 60 mins by spectrophotometry
# Details: not given
row,Compound,IC50 [nM]
1,NC(=O)c1cccc2c1OCC2,9450
2,NC(=O)c1cc(Br)cc2c1OCC2,> 25000
3,NC(=O)c1cc([N+](=O)[O-])cc2c1OCC2,> 25000
4,NC(=O)c1cc(N)cc2c1OCC2,> 25000
5,C[C@@H]1Cc2cccc(C(N)=O)c2O1,6340
6,C[C@H]1Cc2cccc(C(N)=O)c2O1,8440
7,Cc1cc2c(c(C(N)=O)c1)OC(C)C2 (stereo unspecified),> 25000
8,C[C@H]1Cc2cc(F)cc(C(N)=O)c2O1,3620
9,CC1Cc2cc([N+](=O)[O-])cc(C(N)=O)c2O1 (stereo unspecified),> 25000
10,CC1Cc2cc(N)cc(C(N)=O)c2O1 (stereo unspecified),> 25000
11,NC(=O)c1nn(CCCN2C(=O)C(=O)c3ccccc32)c2ccccc12,6800
12,NC(=O)c1cccc2c1OCC2=O,16200
13,NC(=O)c1cccc2c1O/C(=C\c1cccc(Oc3ccccc3)c1)C2=O,4650
14,NC(=O)c1cccc2c1O/C(=C\c1ccc(Cl)cc1)C2=O,6090
15,COc1cc(/C=C2\Oc3c(C(N)=O)cccc3C2=O)ccc1O,3620
16,NC(=O)c1cccc2c1O/C(=C\c1ccccc1O)C2=O,> 10000
17,NC(=O)c1cccc2c1O/C(=C\c1cc(O)cc(O)c1)C2=O,> 10000
18,NC(=O)c1cccc2c1O/C(=C\c1cc(O)ccc1O)C2=O,> 10000
19,NC(=O)c1cccc2c1O/C(=C\c1cccc(OCCN3CCOCC3)c1)C2=O,> 10000
20,NC(=O)c1cccc2c1O/C(=C\c1cccc(OCCN3CCCCC3)c1)C2=O,> 10000
21,CC1Cc2cccc(C(N)=O)c2O1 (racemic),10400
22,"CC1Cc2c(N)ccc(C(N)=O)c2O1 (single isomer, unassigned)",5330

# Now from value to molecule:
row,IC50 [nM],Compound
1,3300,COc1ccc(/C=C2\Oc3c(C(N)=O)cccc3C2=O)cc1
2,2450,CC1Cc2cc(F)cc(C(N)=O)c2O1 (racemic)
3,2430,"CC1Cc2c(N)ccc(C(N)=O)c2O1 (single isomer, unassigned; enantiomer 1)"
4,2140,NC(=O)c1cccc2c1O/C(=C\c1cccc(O)c1)C2=O
5,2120,NC(=O)c1cc(F)cc2c1OCC2
6,2070,NC(=O)c1cccc2c1O/C(=C\c1ccc(OCCN3CCOCC3)cc1)C2=O
7,1530,C[C@@H]1Cc2cc(F)cc(C(N)=O)c2O1
8,1210,NC(=O)c1cccc2c1O/C(=C\c1ccc(OCC3CO3)cc1)C2=O (stereo unspecified)
9,813,NC(=O)c1cccc2c1O/C(=C\c1ccc(O)cc1)C2=O
10,753,NC(=O)c1cccc2c1O/C(=C\c1ccc(O)cc1O)C2=O
11,718,NC(=O)c1cccc2c1O/C(=C\c1ccc(OCCCN3CCOCC3)cc1)C2=O
12,544,NC(=O)c1cccc2c1O/C(=C\c1ccc(OCCN3CCCCC3)cc1)C2=O
13,531,NC(=O)c1cccc2c1O/C(=C\c1ccc(O)c(O)c1)C2=O
14,445,NC(=O)c1cccc2c1O/C(=C\c1ccc(OCCN3CCN(c4ccc(F)cc4)CC3)cc1)C2=O
15,223,NC(=O)c1cccc2c1O/C(=C\c1ccc(OCC(=O)N3CCOCC3)cc1)C2=O
16,176,NC(=O)c1cccc2c1O/C(=C\c1ccc(OCC(O)CN3CCOCC3)cc1)C2=O (stereo unspecified)
17,114,CN1CCN(CCOc2ccc(/C=C3\Oc4c(C(N)=O)cccc4C3=O)cc2)CC1
18,113,CN1CCN(CCCS(=O)(=O)Nc2ccc(/C=C3\Oc4c(C(N)=O)cccc4C3=O)cc2)CC1
19,79,CN1CCN(CCS(=O)(=O)Nc2ccc(/C=C3\Oc4c(C(N)=O)cccc4C3=O)cc2)CC1

# System: not listed separately
# Experiment: Cytotoxicity against chicken wild-type DT40 cells assessed as cell viability at 10 uM after 72 hrs by ATPlite assay
# Assay type: cell-based, Gallus gallus
# Details: dt40, 72 h
row,Compound,Activity
1,CN1CCN(CCOc2ccc(/C=C3\Oc4c(C(N)=O)cccc4C3=O)cc2)CC1,Toxic
2,C[C@]1(c2nc3c(C(N)=O)cccc3[nH]2)CCCN1 [VELIPARIB],Non-toxic

# System: not listed separately
# Experiment: Cytotoxicity against chicken PARP1-deficient DT40 cells assessed as cell viability at 10 uM after 72 hrs by ATPlite assay
# Assay type: cell-based, Gallus gallus
# Details: dt40, 72 h
row,Compound,Activity
1,CN1CCN(CCOc2ccc(/C=C3\Oc4c(C(N)=O)cccc4C3=O)cc2)CC1,Toxic
2,C[C@]1(c2nc3c(C(N)=O)cccc3[nH]2)CCCN1 [VELIPARIB],Non-toxic
